Laboratory results taken from patent US12319672B2, “Alpha-D-galactopyranoside derivatives” (Idorsia Pharmaceuticals Ltd, priority 2019, dated 2025).

What was measured:
human Gal-1 (hGal-1) = assay: Competitive binding assay: binding of biotinylated hGal-1 to microplate-adsorbed asialofetuin (ASF); settings: Activities on hGal-1; mean values of several measurements
In short: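 For hGal-1, a variant with all six cysteines replaced by serines is preferred. Either galectin, biotinylated at 300-1000 ng/mL, competes with compound for microplate-bound ASF over 3 h at 4° C; peroxidase/ABTS detection gives IC50, averaged.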

human Gal-3 (hGal-3) = human Gal-3 (hGal-3) (Homo sapiens (Human), UniProt P17931); assay: Competitive binding assay: binding of biotinylated hGal-3 to microplate-adsorbed asialofetuin (ASF); settings: Activity on hGal-3; mean values of several measurements
Sequence of human Gal-3 (hGal-3) (P17931 whole entry): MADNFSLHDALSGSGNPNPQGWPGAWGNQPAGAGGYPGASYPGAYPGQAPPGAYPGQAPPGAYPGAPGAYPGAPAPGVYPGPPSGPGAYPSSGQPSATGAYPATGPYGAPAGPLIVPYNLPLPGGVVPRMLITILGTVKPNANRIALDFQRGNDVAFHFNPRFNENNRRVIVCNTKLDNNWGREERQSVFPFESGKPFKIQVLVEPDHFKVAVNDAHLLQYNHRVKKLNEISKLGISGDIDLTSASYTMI
In short: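 Compounds in DMSO dilution series competed with 300-1000 ng/mL biotinylated hGal-3 for asialofetuin adsorbed on the plate (3 h, 4° C). Streptavidin-peroxidase at 80 ng/mL (1 h, 4° C) with ABTS gave a spectrophotometric read-out, and IC50 was reported as the mean of repeat runs.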

Sequence of human Gal-1 (hGal-1) (P09382 2-135 limits assumed): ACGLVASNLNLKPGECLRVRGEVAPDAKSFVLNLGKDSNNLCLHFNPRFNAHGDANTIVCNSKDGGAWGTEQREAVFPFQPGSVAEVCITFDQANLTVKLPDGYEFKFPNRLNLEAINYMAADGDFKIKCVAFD

Structure (SMILES) | IC50 (human Gal-1 (hGal-1)) [nM] | IC50 (human Gal-3 (hGal-3)) [nM]
CO[C@@H]1[C@@H](n2cc(-c3ccc(Cl)c(F)c3)nn2)[C@@H](O)[C@@H](CO)O[C@@H]1Cc1cc(C2CCN(C(=O)OC(C)(C)C)CC2)no1 [Ex 1.124] | 800 | 31
CO[C@@H]1[C@@H](n2cc(-c3ccc(Br)c(F)c3)nn2)[C@@H](O)[C@@H](CO)O[C@@H]1Cc1cc(C2CCN(C(=O)OC(C)(C)C)CC2)no1 [Ex 1.125] | 1000 | 140
CO[C@@H]1[C@@H](n2cc(-c3cc(F)cc(F)c3)nn2)[C@@H](O)[C@@H](CO)O[C@@H]1Cc1cc(C2CCN(C(=O)OC(C)(C)C)CC2)no1 [Ex 1.126] | 440 | 81
CO[C@@H]1[C@@H](n2cc(-c3cc(F)c(F)c(F)c3)nn2)[C@@H](O)[C@@H](CO)O[C@@H]1Cc1cc(-c2nc(Br)cs2)on1 [Ex 1.127] | 9840 | 300
CO[C@@H]1[C@@H](n2cc(-c3cc(F)c(F)c(F)c3)nn2)[C@@H](O)[C@@H](CO)O[C@@H]1CC1=NO[C@@H](C2CCCCC2)C1 [Ex 1.128] | 15400 | 870
CO[C@@H]1[C@@H](n2cc(-c3cc(F)c(F)c(F)c3)nn2)[C@@H](O)[C@@H](CO)O[C@@H]1CC1=NO[C@H](C2CCCCC2)C1 [Ex 1.129] | 14700 | 270
CO[C@@H]1[C@@H](n2cc(-c3cc(F)c(F)c(F)c3)nn2)[C@@H](O)[C@@H](CO)O[C@@H]1Cc1cc(C23CCC(NC(=O)OC(C)(C)C)(CC2)CC3)on1 [Ex 1.130] | 18100 | 260
CO[C@@H]1[C@@H](n2cc(-c3cc(F)c(F)c(F)c3)nn2)[C@@H](O)[C@@H](CO)O[C@@H]1Cc1cc(C23CCC(N)(CC2)CC3)on1 [Ex 1.131] | 7440 | 140
CO[C@@H]1[C@@H](n2cc(-c3cc(F)c(F)c(F)c3)nn2)[C@@H](O)[C@@H](CO)O[C@@H]1Cc1cc(C2(O)CCN(C(=O)OC(C)(C)C)CC2)on1 [Ex 1.132] | 760 | 69
CO[C@@H]1[C@@H](n2cc(-c3cc(F)c(F)c(F)c3)nn2)[C@@H](O)[C@@H](CO)O[C@@H]1Cc1cc(C2(O)CCNCC2)on1 [Ex 1.133] | 10700 | 230
CO[C@@H]1[C@@H](n2cc(-c3cc(F)c(F)c(F)c3)nn2)[C@@H](O)[C@@H](CO)O[C@@H]1Cc1cc(C2CCC(NC(=O)OC(C)(C)C)CC2)no1 (stereo partly drawn) [Ex 1.134] | 10800 | 84
CO[C@@H]1[C@@H](n2cc(-c3cc(F)c(C)c(F)c3)nn2)[C@@H](O)[C@@H](CO)O[C@@H]1CC1CC(C2CCN(C(=O)OC(C)(C)C)CC2)=NO1 (stereo partly drawn) [Ex 1.135] | 9000 | 100
CO[C@@H]1[C@@H](n2cc(-c3ccc(C)c(F)c3)nn2)[C@@H](O)[C@@H](CO)O[C@@H]1CC1CC(C2CCN(C(=O)OC(C)(C)C)CC2)=NO1 (stereo partly drawn) [Ex 1.136] | 4770 | 112
CO[C@@H]1[C@@H](n2cc(-c3ccc(C)c(F)c3F)nn2)[C@@H](O)[C@@H](CO)O[C@@H]1CC1CC(C2CCN(C(=O)OC(C)(C)C)CC2)=NO1 (stereo partly drawn) [Ex 1.137] | 1880 | 48
CN=[S@@](=O)(C(C)C)N1CCC(c2cc(C[C@H]3O[C@H](CO)[C@H](O)[C@H](n4cc(-c5cc(F)c(F)c(F)c5)nn4)[C@H]3OC)no2)CC1 [Ex 1.138] | 15300 | 130
CN=[S@](=O)(C(C)C)N1CCC(c2cc(C[C@H]3O[C@H](CO)[C@H](O)[C@H](n4cc(-c5cc(F)c(F)c(F)c5)nn4)[C@H]3OC)no2)CC1 [Ex 1.139] | 1130 | 42
CO[C@@H]1[C@@H](n2cc(-c3ccc(Cl)c(F)c3F)nn2)[C@@H](O)[C@@H](CO)O[C@@H]1CC1CC(C2CCN(C(=O)OC(C)(C)C)CC2)=NO1 (stereo partly drawn) [Ex 1.140] | 690 | 49
CO[C@@H]1[C@@H](n2cc(-c3ccc(Br)c(F)c3F)nn2)[C@@H](O)[C@@H](CO)O[C@@H]1CC1CC(C2CCN(C(=O)OC(C)(C)C)CC2)=NO1 (stereo partly drawn) [Ex 1.141] | 790 | 97
CO[C@@H]1[C@@H](n2cc(-c3ccc(Br)c(F)c3F)nn2)[C@@H](O)[C@@H](CO)O[C@@H]1CC1CC(C2CCNCC2)=NO1 (stereo partly drawn) [Ex 1.142] | 1320 | 71
CO[C@@H]1[C@@H](n2cc(-c3ccc(F)c(F)c3F)nn2)[C@@H](O)[C@@H](CO)O[C@@H]1CC1CC(C2CCN(C(=O)OC(C)(C)C)CC2)=NO1 (stereo partly drawn) [Ex 1.143] | 190 | 100
CO[C@@H]1[C@@H](n2cc(-c3ccc(F)c(F)c3F)nn2)[C@@H](O)[C@@H](CO)O[C@@H]1CC1CC(C2CCNCC2)=NO1 (stereo partly drawn) [Ex 1.144] | 740 | 180
CO[C@@H]1[C@@H](n2cc(-c3cc(F)c(Cl)c(F)c3)nn2)[C@@H](O)[C@@H](CO)O[C@@H]1CC1CC(C2CCN(C(=O)OC(C)(C)C)CC2)=NO1 (stereo partly drawn) [Ex 1.145] | 1560 | 170
CO[C@@H]1[C@@H](n2cc(-c3cc(F)c(Cl)c(F)c3)nn2)[C@@H](O)[C@@H](CO)O[C@@H]1CC1CC(C2CCNCC2)=NO1 (stereo partly drawn) [Ex 1.146] | 4660 | 240

Structure (SMILES) | IC50 (human Gal-1 (hGal-1)) [nM] | IC50 (human Gal-3 (hGal-3)) [nM]
CCOC(=O)N1CCC(c2cc(C[C@H]3O[C@H](CO)[C@H](O)[C@H](n4cc(-c5ccc(Cl)c(F)c5)nn4)[C@H]3OC)no2)CC1 [Ex 1.149] | 470 | 84
CCOC(=O)N1CCC(c2cc(C[C@H]3O[C@H](CO)[C@H](O)[C@H](n4cc(-c5ccc(F)c(F)c5F)nn4)[C@H]3OC)no2)CC1 [Ex 1.150] | 140 | 23
CCOC(=O)N1CCC(c2cc(C[C@H]3O[C@H](CO)[C@H](O)[C@H](n4cc(-c5ccc(C)c(F)c5F)nn4)[C@H]3OC)no2)CC1 [Ex 1.151] | 1020 | 19
CO[C@@H]1[C@@H](n2cc(-c3cc(F)c(C)c(F)c3)nn2)[C@@H](O)[C@@H](CO)O[C@@H]1Cc1cc(C2CCN(S(C)(=O)=O)CC2)on1 [Ex 1.152] | 1510 | 39
CO[C@@H]1[C@@H](n2cc(-c3ccc(C)c(F)c3)nn2)[C@@H](O)[C@@H](CO)O[C@@H]1Cc1cc(C2CCN(S(C)(=O)=O)CC2)on1 [Ex 1.153] | 1600 | 67
CO[C@@H]1[C@@H](n2cc(-c3ccc(Cl)c(F)c3F)nn2)[C@@H](O)[C@@H](CO)O[C@@H]1Cc1cc(C2CCN(S(C)(=O)=O)CC2)on1 [Ex 1.154] | 360 | 33
CO[C@@H]1[C@@H](n2cc(-c3ccc(Cl)c(F)c3)nn2)[C@@H](O)[C@@H](CO)O[C@@H]1Cc1cc(C2CCN(S(C)(=O)=O)CC2)on1 [Ex 1.156] | 940 | 31
CO[C@@H]1[C@@H](n2cc(-c3ccc(F)c(F)c3F)nn2)[C@@H](O)[C@@H](CO)O[C@@H]1Cc1cc(C2CCN(S(C)(=O)=O)CC2)on1 [Ex 1.157] | 94 | 30
CO[C@@H]1[C@@H](n2cc(-c3cc(F)c(Cl)c(F)c3)nn2)[C@@H](O)[C@@H](CO)O[C@@H]1Cc1cc(C2CCN(S(C)(=O)=O)CC2)on1 [Ex 1.158] | 1520 | 66
CO[C@@H]1[C@@H](n2cc(-c3ccc(C)c(F)c3F)nn2)[C@@H](O)[C@@H](CO)O[C@@H]1Cc1cc(C2CCN(S(C)(=O)=O)CC2)on1 [Ex 1.159] | 1530 | 57
CO[C@@H]1[C@@H](n2cc(-c3cc(F)cc(Cl)c3)nn2)[C@@H](O)[C@@H](CO)O[C@@H]1Cc1cc(C2CCN(S(C)(=O)=O)CC2)on1 [Ex 1.160] | 730 | 78
CO[C@@H]1[C@@H](n2cc(-c3cc(F)c(C)c(F)c3)nn2)[C@@H](O)[C@@H](CO)O[C@@H]1Cc1cc(C2CCN(C(C)=O)CC2)on1 [Ex 1.161] | 1660 | 34
CO[C@@H]1[C@@H](n2cc(-c3ccc(C)c(F)c3)nn2)[C@@H](O)[C@@H](CO)O[C@@H]1Cc1cc(C2CCN(C(C)=O)CC2)on1 [Ex 1.162] | 740 | 37
CO[C@@H]1[C@@H](n2cc(-c3ccc(Br)c(F)c3F)nn2)[C@@H](O)[C@@H](CO)O[C@@H]1Cc1cc(C2CCN(C(C)=O)CC2)on1 [Ex 1.164] | 1070 | 38
CO[C@@H]1[C@@H](n2cc(-c3ccc(Cl)c(F)c3)nn2)[C@@H](O)[C@@H](CO)O[C@@H]1Cc1cc(C2CCN(C(C)=O)CC2)on1 [Ex 1.165] | 680 | 59
CO[C@@H]1[C@@H](n2cc(-c3ccc(F)c(F)c3F)nn2)[C@@H](O)[C@@H](CO)O[C@@H]1Cc1cc(C2CCN(C(C)=O)CC2)on1 [Ex 1.166] | 260 | 26
CO[C@@H]1[C@@H](n2cc(-c3ccc(C)c(F)c3F)nn2)[C@@H](O)[C@@H](CO)O[C@@H]1Cc1cc(C2CCN(C(C)=O)CC2)on1 [Ex 1.168] | 930 | 29
CO[C@@H]1[C@@H](n2cc(-c3cc(F)cc(Cl)c3)nn2)[C@@H](O)[C@@H](CO)O[C@@H]1Cc1cc(C2CCN(C(C)=O)CC2)on1 [Ex 1.169] | 470 | 154
CO[C@@H]1[C@@H](n2cc(-c3cc(F)c(C)c(F)c3)nn2)[C@@H](O)[C@@H](CO)O[C@@H]1Cc1cc(C2CCCCC2)on1 [Ex 1.170] | > 100000 | 400
CO[C@@H]1[C@@H](n2cc(-c3ccc(C)c(F)c3)nn2)[C@@H](O)[C@@H](CO)O[C@@H]1Cc1cc(C2CCCCC2)on1 [Ex 1.171] | 13200 | 440
CO[C@@H]1[C@@H](n2cc(-c3ccc(Cl)c(F)c3F)nn2)[C@@H](O)[C@@H](CO)O[C@@H]1Cc1cc(C2CCCCC2)on1 [Ex 1.172] | 57000 | 260
CO[C@@H]1[C@@H](n2cc(-c3ccc(Br)c(F)c3F)nn2)[C@@H](O)[C@@H](CO)O[C@@H]1Cc1cc(C2CCCCC2)on1 [Ex 1.173] | 47800 | 440
